{"source": "patent US20080107723A1", "about": "“Methods of Treating Pulmonary Distress” (priority 2006, published 2008)", "origin": "cited, not measured here", "molecules": {"B1": {"name": "Pulmozyme: recombinant human Dnase administered by inhalation (protein, UniProt P24855 23-282, looked up)", "Deoxyribonuclease-1": "LKIAAFNIQTFGETKMSNATLVSYIVQILSRYDIALVQEVRDSHLTAVGKLLDNLNQDAPDTYHYVVSEPLGRNSYKERYLFVYRPDQVSAVDSYYYDDGCEPCGNDTFNREPAIVRFFSRFTEVREFAIVPLHAAPGDAVAEIDALYDVYLDVQEKWGLEDVMLMGDFNAGCSYVRPSQWSSIRLWTSPTFQWLIPDSADTTATPTHCAYDRIVVAGMLLRGAVVPDSALPFNFQAAYGLSDQLAQAISDHYPVEVMLK"}}, "key": {"[1]": {"details": "administered by inhalation; CF patients"}, "[2]": {"tested_on": "colony forming units (CFU)", "details": "administered by inhalation; CF patients"}}, "data": [{"molecule": "NC[C@H]1O[C@H](O[C@H]2[C@H](O)[C@@H](O[C@H]3O[C@H](CO)[C@@H](O)[C@H](N)[C@H]3O)[C@H](N)C[C@@H]2N)[C@H](N)C[C@@H]1O", "note": "[Tobramycin]", "values": [{"measurement": "improvement in FEV1", "setting": "[1]", "value": "approximately 10%"}, {"measurement": "reduction in colony forming units (CFU)", "setting": "[2]", "value": "about 2 log units"}]}, {"molecule": "B1", "values": [{"measurement": "improvement in FEV1", "setting": "[1]", "value": "approximately 10%"}]}]}
